Reference: patent US8569339B2, “Soluble guanylate cyclase activators” (Boehringer Ingelheim International GmbH, priority 2011, dated 2013)
In brackets after ≈: the same amount, converted by molar mass.

Experiments:
[1] = target: T1, Recombinant human soluble guanylate cyclase (sGC) (Homo sapiens, UniProt Q02153); assay: Molecular assay: activation of heme-free sGC, cGMP detection (CisBio kit); format: biochemical; conditions: 300 pM heme-free sGC, 37° C., 60 minutes, cGMP formation
T1 construct: histidine tag (C); made in house; host or cells: Sf9 insect cells (baculovirus coinfection)
T1 sequence (Q02108 whole entry partner): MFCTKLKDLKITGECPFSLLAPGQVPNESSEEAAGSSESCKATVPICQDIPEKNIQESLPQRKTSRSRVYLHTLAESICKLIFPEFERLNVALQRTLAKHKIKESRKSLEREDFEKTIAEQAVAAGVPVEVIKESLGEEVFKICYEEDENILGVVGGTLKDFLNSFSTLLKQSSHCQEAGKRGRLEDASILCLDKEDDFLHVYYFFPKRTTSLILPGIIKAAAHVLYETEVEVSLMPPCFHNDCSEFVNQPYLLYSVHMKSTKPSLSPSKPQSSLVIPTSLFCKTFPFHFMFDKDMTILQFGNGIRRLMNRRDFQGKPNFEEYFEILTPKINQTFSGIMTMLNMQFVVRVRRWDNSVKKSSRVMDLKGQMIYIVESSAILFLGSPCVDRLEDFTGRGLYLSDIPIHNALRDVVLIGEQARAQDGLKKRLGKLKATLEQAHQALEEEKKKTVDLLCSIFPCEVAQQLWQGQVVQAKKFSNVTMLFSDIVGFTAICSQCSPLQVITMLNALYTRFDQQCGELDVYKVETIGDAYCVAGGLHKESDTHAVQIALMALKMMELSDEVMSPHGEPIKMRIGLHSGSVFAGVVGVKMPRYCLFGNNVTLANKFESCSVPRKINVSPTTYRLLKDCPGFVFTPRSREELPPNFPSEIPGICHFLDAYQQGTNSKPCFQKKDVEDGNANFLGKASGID
T1 sequence (Q02153 whole entry): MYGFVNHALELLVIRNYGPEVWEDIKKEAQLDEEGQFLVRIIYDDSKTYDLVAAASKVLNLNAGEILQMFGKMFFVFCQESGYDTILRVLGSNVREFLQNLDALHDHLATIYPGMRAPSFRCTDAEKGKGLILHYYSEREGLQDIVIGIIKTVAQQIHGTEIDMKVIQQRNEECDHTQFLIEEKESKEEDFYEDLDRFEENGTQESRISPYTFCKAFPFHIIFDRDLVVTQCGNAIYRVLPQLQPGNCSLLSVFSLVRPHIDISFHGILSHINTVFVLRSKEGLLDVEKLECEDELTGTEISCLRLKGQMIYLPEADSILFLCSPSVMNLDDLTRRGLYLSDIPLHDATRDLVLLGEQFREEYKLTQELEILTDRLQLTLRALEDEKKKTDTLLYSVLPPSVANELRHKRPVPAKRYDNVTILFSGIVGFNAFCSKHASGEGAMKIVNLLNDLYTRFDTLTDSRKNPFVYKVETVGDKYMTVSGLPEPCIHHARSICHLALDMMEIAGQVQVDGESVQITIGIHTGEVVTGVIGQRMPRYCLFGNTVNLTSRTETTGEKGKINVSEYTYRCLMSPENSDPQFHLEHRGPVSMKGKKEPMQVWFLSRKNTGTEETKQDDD
Experimental: The compounds of the invention may be evaluated in the following molecular assay:
Recombinant human soluble guanylate cyclase (sGC) is purified from Sf9 insect cells coinfected with baculoviruses expressing the alpha 1 or beta 1 subunit of sGC, both with a C-terminal histidine tag. Heme-free sGC is prepared by treating cell lysate with a final concentration of 0.5% Tween 20 prior to purification on a nickel affinity column.
sGC catalyzes the conversion of guanosine-5′-triphosphate (GTP) to cyclic guanosine monophosphate (cGMP). The activity of sGC is measured in vitro using the commercially available CisBio cGMP detection kit (catalog #62GM2PEB) in a 384 well format. In brief, 300 pM heme-free sGC is incubated in reaction buffer (50 mM MOPS pH 6.8, 0.2 N KOH, 50 mM NaCl, 2 mM MgCl2, 0.1% BSA, 1.25 mM IBMX, 0.25 mM TCEP, 50 nM GTP) in the presence or absence of dilutions of test compounds diluted in DMSO (final concentration of 1%) in a volume of 10 microL at 37° C. for 60 minutes. Undiluted reaction products or an 80-fold dilution of reaction products (10 microL of either) prepared in reaction buffer containing 0.2 mM TCEP and 10 mM EDTA is mixed with 5 microL of d2-cGMP plus 5 microL of Eu^3+cryptate-labeled anti-cGMP, each diluted in buffer containing 0.1 M KPO4 pH 7.5, 0.4 M KF, 20 mM EDTA, 0.2% BSA. After a one hour incubation at room temperature in the dark, the mixtures are quantified on an EnVision plate reader (PerkinElmer) according to manufacturer instructions (laser excitation 337 nm, emission 620 and 665 nm). The ratio at each compound concentration is converted to nM cGMP using the linear portion of a calibration curve. Log compound concentration is plotted against combined undiluted and diluted nM cGMP values to determine the EC50 for each curve.
Representative compounds of the present invention were tested for activity in the above assay. Preferred compounds have an IC50<5,000 nM and more preferred compounds have an IC50<100 nM in this assay.

[2] = Assessment of solubility (HT solubility, pION, UV); format: physicochemical; conditions: incubated 16-19 hours, 1.0% DMSO, 100 uM; for solubility kinetic: pH 4.5 buffer (pION system solution), pH 4.5, aqueous buffer, kinetic from dmso stock, pH 4.5 buffer, read-out: Sol pH 4.5; for Sol pH 7.4: pH 7.4 buffer
Experimental: Solubility is measured by the following method.
DMSO stock samples at 10 mM conc are prepared. […] The samples are pierced and 100 ul of thawed samples are transferred into the PCR plate for analysis. Each sample is run in duplicate at each pH (pH 4.5 and 7.4). Up to 95 samples can be run in replicate at 2 pH's+1 DMSO (blank).
2. Preparation of pH 4.5 and 7.4 buffers:
pH 4.5 buffer: To 12.5 of system solution (pION) qs to 500 mL of distilled water (pH 2.85-2.90); adjust the pH to pH 4.5 with 0.5 N NaOH.
pH 7.4 buffer: To 12.5 of system solution (pION) qs to 500 mL of distilled water (pH 2.85-2.90); adjust the pH to pH 7.4 with 0.5N NaOH.
Preparation of UV blank plate:
75 ul of buffer (pH 7.4 or pH 4.5) is added to UV plate followed by addition of […] of N-propanol. The solution is mixed and the blank spectrum is read using spectrophotometer.
Preparation of Reference UV plate:
10 ul of each stock sample (including DMSO control) is added to 190 ul of N-propanol to prepare the reference stock plate. Reference stock samples are mixed and 5 ul of each stock sample is added to UV blank plate after it is read spectrophotometrically. The reference stock sample is mixed with blank solution in UV plate and the reference spectrum is read using UV spectrophotometer.
Preparation of sample for incubation:
Solubility at pH 7.4: 6 ul of each stock sample (including DMSO control) is added to the storage plate containing 600 ul of pH 7.4 buffer, mixed and incubated for 16-19 hours. The plate is sealed well during the incubation process. The DMSO content in the sample is 1.0%. The concn in deep well plates is 100 uM
6 ul of each stock sample (including DMSO control) is added to the deep well plate containing 600 ul of pH 4.5 buffer, mixed and incubated for 16-19 hours. The plate is sealed well during the incubation process. The DMSO content in the sample is 1.0%. The concn in deep well plates is 100 uM
Preparation of sample UV plate:
At the end of the incubation period, 100 uL of sample from the storage plate is vacuum filtered using a filter plate. This step wets the filters and the filtrate is discarded. Another 200 ul of the sample from the deep well plate is vacuum filtered using the same filter block but a clean filter plate. 75 ul of the filtrate from the filter plate is transferred to a UV sample plate. 75 ul of N-propanol is added to this UV plate. The solution is mixed and the spectrum is read using the UV spectrophotometer.
The spectra collected for blank, reference and sample from 250-498 nm is analyzed using pION software. If the sample precipitates out, the solubility is reported as XX μg/ml. If there is no precipitation and the sample is soluble, solubility is reported as […] (YY being the initial concentration of the compound in the sample).

| Structure (SMILES) | EC50 [1] [nM] | solubility kinetic [2] [µg/mL] | Sol pH 7.4 [2] [μg/mL] |
| --- | --- | --- | --- |
| Cc1ccc(OCc2ccc3c(c2)CCN(C(C)c2cnccn2)C3)c(-c2cccc(-n3ncc(C(=O)O)c3C(F)(F)F)n2)c1 (stereo not drawn) [Compound 28] | 9 | > 61 | >61 |
| Cc1ccc(OCc2ccc3c(c2)CCN(C)C3)c(-c2cccc(-n3ncc(C(=O)O)c3C(F)(F)F)n2)c1 [Compound 2, 1-{6-[5-methyl-2-(2-methyl-1,2,3,4-tetrahydroisoquinolin-6-ylmethoxy)phenyl]pyridin-2-yl}-5-trifluoromethyl-1H-pyrazole-4-carboxylic acid] | 46 | 6.5 (≈ 12.4 µM) | 6.1 |
| Cc1ccc(OCc2ccc3c(c2)CCN(C2CCC(C(F)(F)F)CC2)C3)c(-c2cccc(-n3ncc(C(=O)O)c3C(F)(F)F)n2)c1 (stereo not drawn) [Compound 33] | 6 | 6.3 (≈ 9.57 µM) | 4.6 |
| Cc1ccc(OCc2ccc3c(c2)CCN(C2CCCOC2)C3)c(-c2cccc(-n3ncc(C(=O)O)c3C(F)(F)F)n2)c1 (stereo not drawn) [Compound 22] | 1 | > 59 | >59 |
| Cc1ccc(OCc2ccc3c(c2)CCN(Cc2cnccn2)C3)c(-c2cccc(-n3ncc(C(=O)O)c3C(F)(F)F)n2)c1 [Compound 24] | 9 | 40 (≈ 66.6 µM) | >59 |
| Cc1ccc(OCc2ccc3c(c2)CCN(S(=O)(=O)CC(=O)O)C3)c(-c2cccc(-n3ncc(C(=O)O)c3C(F)(F)F)n2)c1 [Compound 1] | 148 | > 62 | >62 |
| Cc1ccc(OCc2ccc3c(c2)CCN(Cc2ccccn2)C3)c(-c2cccc(-n3ncc(C(=O)O)c3C(F)(F)F)n2)c1 [Compound 18] | 0.8 | > 59 | >59 |
| Cc1ccc(OCc2ccc3c(c2)CCN(CCc2ccccc2)C3)c(-c2cccc(-n3ncc(C(=O)O)c3C(F)(F)F)n2)c1 [Compound 20] | 4 | 7.8 (≈ 12.7 µM) | 10.7 |
| Cc1ccc(OCc2ccc3c(c2)CCN(C(C)C)C3)c(-c2cccc(-n3ncc(C(=O)O)c3C(F)(F)F)n2)c1 [Compound 21] | 25 | > 55 | >55 |
| Cc1ccc(OCc2ccc3c(c2)CCN(C2CCCC2)C3)c(-c2cccc(-n3ncc(C(=O)O)c3C(F)(F)F)n2)c1 [Compound 17] | 13 | 44.3 (≈ 76.8 µM) | >68 |
| Cc1ccc(OCc2ccc3c(c2)CCN(C2CCC2)C3)c(-c2cccc(-n3ncc(C(=O)O)c3C(F)(F)F)n2)c1 [Compound 16] | 33 | > 67 | >67 |
| Cc1ccc(OCc2ccc3c(c2)CCN(C2CCCCC2)C3)c(-c2cccc(-n3ncc(C(=O)O)c3C(F)(F)F)n2)c1 [Compound 19] | 2 | > 58 | >58 |
| Cc1ccc(OCc2ccc3c(c2)CCN(Cc2nc(C)cs2)C3)c(-c2cccc(-n3ncc(C(=O)O)c3C(F)(F)F)n2)c1 [Compound 29] | 0.5 | 12.9 (≈ 20.8 µM) | >61 |
| Cc1ccc(OCc2ccc3c(c2)nnn3C)c(-c2cccc(-n3ncc(C(=O)O)c3C(F)(F)F)n2)c1 [Compound 10] | 280 | 0.95 (≈ 1.87 µM) | >50 |
| CCn1cc(CN2CCc3cc(COc4ccc(C)cc4-c4cccc(-n5ncc(C(=O)O)c5C(F)(F)F)n4)ccc3C2)cn1 [Compound 32] | 12 | 10.8 (≈ 17.5 µM) | 15.9 |

Second part, the molecule after the results:

| EC50 [1] [nM] | solubility kinetic [2] [µg/mL] | Sol pH 7.4 [2] [μg/mL] | Structure (SMILES) |
| --- | --- | --- | --- |
| 970 | 24.1 (≈ 48.5 µM) | 24.2 | Cc1ccc(OCc2ccc3c(c2C)CCN(C)C3)c(-c2cccc(-c3c(C)c(C(=O)O)nn3C)n2)c1 [Compound 78] |
| 640 | 5.1 (≈ 10.6 µM) | 1.9 | Cc1ccc(OCc2ccc3c(c2C)CCN(C)C3)c(-c2cccc(-c3ncc(C(=O)O)n3C)n2)c1 [Compound 48, 2-{6-[2-(2,5-dimethyl-1,2,3,4-tetrahydroisoquinolin-6-ylmethoxy)-5-methylphenyl]pyridin-2-yl}-3-methyl-3H-imidazole-4-carboxylic acid] |
| 27 | > 67 | >67 | Cc1cc(CN2CCc3cc(COc4c(C)cccc4-c4cccc(-c5ncc(C(=O)O)n5C)n4)ccc3C2)no1 [Compound 72] |
| 4200 | > 110 | >110 | Cc1cccc(-c2cccc(-c3nc(C)c(C(=O)O)s3)n2)c1OCc1ccc2c(c1)CCN(C1CCOCC1)C2 [Compound 59, 4-methyl-2-[6-[3-methyl-2-[(2-tetrahydropyran-4-yl-3,4-dihydro-1H-isoquinolin-6-yl)methoxy]phenyl]-2-pyridyl]thiazole-5-carboxylic acid] |
| 50 | > 69 | >69 | Cc1cccc(-c2cccc(-c3c(C)c(C(=O)O)nn3C(C)C)n2)c1OCc1ccc2c(c1)CCN(C1CCOCC1)C2 [Compound 83] |
| 7 | 42.3 (≈ 73.1 µM) | 43.0 | Cc1ccc(OCc2ccc3c(c2)CCN(C2CCOC2)C3)c(-c2cccc(-n3ncc(C(=O)O)c3C(F)(F)F)n2)c1 (stereo not drawn) [Compound 35, 1-(6-{5-methyl-2-[2-(tetrahydrofuran-3-yl)-1,2,3,4-tetrahydroisoquinolin-6-ylmethoxy]phenyl}pyridin-2-yl)-5-trifluoromethyl-1H-pyrazole-4-carboxylic acid] |
| 155 | > 81 | >81 | Cc1ccc(OCc2ccc3c(c2C)CCN(C2CCOCC2)C3)c(-c2cccc(-c3c(C)c(C(=O)O)nn3C)n2)c1 [Compound 80] |
| 234 | > 78 | 54.2 | Cc1cccc(-c2cccc(-c3ncc(C(=O)O)n3C)n2)c1OCc1ccc2c(c1)CCN(C1CCOCC1)C2 [Compound 67] |
| 134 | > 53 | >53 | Cc1ccc(OCc2ccc3c(c2)CCN(C2CCOCC2)C3)c(-c2cccc(-n3ncc(C(=O)O)c3C)n2)c1 [Compound 65] |
| 19 | > 64 | >64 | Cc1cccc(-c2cccc(-c3csc(C(=O)O)c3C)n2)c1OCc1ccc2c(c1)CCN(C1CCOCC1)C2 [Compound 60] |
